According to US20100184683A1, “ANTIBACTERIAL AND ANTIFUNGAL PEPTIDES” (C3 JIAN, INC., priority 2009, published 2010):
Converted amounts (≈) assume the structure as drawn. Peptide text beside a SMILES is read from it.

Tests used:
B. subtilis = format: cell-based, Bacillus subtilis
Method in brief: (§1)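 Organism-specific media and growth conditions are used for MIC testing of every strain.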

T. rubrum = format: cell-based, Trichophyton rubrum
Method in brief: as §1

S. epidermidis = format: cell-based
Method in brief: as §1

C. albicans = format: cell-based, Candida albicans
Method in brief: as §1

E. faecalis = format: cell-based, Enterococcus faecalis
Description: (§2) In certain embodiments the MIC assays are performed as described herein in the Examples. For each organism, the media and growth conditions utilized is detailed in Table 8.
(§3) In certain embodiments the MIC assays are performed as follows: For each organism, the media and growth conditions utilized is detailed in Table 8.

MRSA = format: cell-based, Methicillin-resistant Staphylococcus aureus
Method in brief: as §1

A. niger = format: cell-based, Aspergillus niger
Description: as §2, §3

CC[C@H](C)[C@H](NC(=O)[C@H](C)NC(=O)[C@H](CO)NC(=O)[C@H](CC(=O)O)NC(=O)[C@H](Cc1ccc(O)cc1)NC(=O)[C@H](C)NC(=O)[C@@H](NC(=O)[C@H](CC(C)C)NC(=O)[C@H](C)NC(=O)[C@H](CC(C)C)NC(=O)[C@H](CO)NC(=O)CNC(=O)[C@H](Cc1ccccc1)NC(=O)[C@H](CCCNC(=N)N)NC(=O)[C@@H](N)CCSC)C(C)C)C(=O)N[C@@H](CCCCN)C(=O)N[C@@H](Cc1c[nH]cn1)C(=O)N[C@@H](CO)C(=O)N[C@@H](Cc1c[nH]c2ccccc12)C(=O)N1CCC[C@H]1C(=O)N[C@@H](CCCNC(=N)N)C(=O)N1CCC[C@H]1C(=O)N[C@@H](CO)C(=O)N[C@@H](CO)C(=O)N[C@H](C(=O)N[C@@H](CCCNC(=N)N)C(=O)N[C@@H](CCCNC(=N)N)C(=O)N[C@@H](CC(C)C)C(=O)N[C@@H](CCCNC(=N)N)C(=O)N[C@@H](CCSC)C(=O)O)C(C)C [PF-672] (H-MRFGSLALVAYDSAIKHSWPRPSSVRRLRM-OH; N-terminus and C-terminus assumed)
MIC (B. subtilis): 0.78 µM (≈ 2.72 µg/mL) | MIC (T. rubrum): 0.78 µM (≈ 2.72 µg/mL) | MIC (S. epidermidis): 0.39 µM (≈ 1.36 µg/mL) | MIC (C. albicans): 1.56 µM (≈ 5.44 µg/mL) | MIC (E. faecalis): 3.13 µM (≈ 10.9 µg/mL) | MIC (MRSA): 1.56 µM (≈ 5.44 µg/mL) | MIC (A. niger): 3 µM (≈ 10.5 µg/mL)
